Measured values reported in patent US4361511A, “Benzodiazepine derivatives” (Hoffmann-La Roche Inc., priority 1980, dated 1982).

Key:
[1] = test system: adrenalectomised rats treated with aldosterone; assay: aldosterone-antagonistic activity in adrenalectomised rats (urine volume, sodium and potassium excretion over 3 hours); assay type: in vivo, Female Holtzmann rats; details: for (K+) potassium excretion in %, based on control animals / (Na+) sodium excretion in %, based on control animals / Volume (urine volume) in %, based on control animals: 1 mg/kg p.o., aldosterone 4 mmg/kg s.c. 30 min later, vs animals treated only with aldosterone, urine collected 3 h
Experimental: If compounds of formula I are administered to the animals before the treatment with aldosterone, then there is observed, in comparison to animals treated only with aldosterone (control animals), a pronounced increase of the sodium excretion (i.e. the sodium retention caused by aldosterone is antagonised), whereas the potassium excretion and the urine volume are influenced to a lesser extent.
The standard experiment is carried out as follows:
Female Holtzmann rats (150-180 g) are bilaterally adrenalectomised 70 to 74 hours before the beginning of the experiment. After the operation, the animals receive a customary rat dry feed and 0.9 percent sodium chloride solution for drinking. 16 to 17 hours before the beginning of the experiment the feed is removed from the animals, but they can subsequently drink, as before, 0.9 percent sodium chloride solution ad libitum. At the beginning of the experiment the substance to be tested as an aldosterone-antagonist is administered to the animals by means of a stomach probe. 30 minutes later the animals receive a subcutaneous injection of 4 mmg/kg of aldosterone. After a further 90 minutes, the urinary bladders of the animals are emptied by careful suprapubic pressure, whereupon the animals are placed individually in metabolic cages without food and without drink. The urine of the animals is then collected for 3 hours, whereupon their urinary bladders are once more emptied. The spontaneously excreted urine and the remaining urine obtained at the conclusion of the experiment by pressing-out the urinary bladders are collected in graduated centrifuge glasses. Sodium and potassium concentrations in the urine are determined with a flame photometer.
(§1) The following Table contains results obtained in the previously described experiment with representative compounds of formula I. In this Table there are given for each compound in question the dosage administered (in mg/kg p.o.) as well as the percentage variation in the urine volume), the sodium excretion and the potassium excretion in comparison with the control animals (i.e. in comparison with the animals treated only with aldosterone). Moreover, the Table contains data relating to the acute toxicity of the compounds investigated (LD 50 in mg/kg in the case of a single oral administration to mice).

[2] = acute toxicity, single oral administration to mice; details: mouse, in vivo
From the text: as §1

[3] = in comparison to untreated animals

| SMILES | (K+) potassium excretion in %, based on control animals [1] [%] | (Na+) sodium excretion in %, based on control animals [1] [%] | Volume (urine volume) in %, based on control animals [1] [%] | LD50 [2] [mg/kg] | excreted urine volume after aldosterone alone [1, 3] | potassium excretion after aldosterone alone [1, 3] | sodium excretion after aldosterone alone [1, 3] |
| --- | --- | --- | --- | --- | --- | --- | --- |
| CN(C)C(=O)Nc1c(Cl)cc2c(c1Cl)C(c1ccccc1F)=NCC(=O)N2C [Example 4, 3-[6,8-dichloro-5-(o-fluorophenyl)-2,3-dihydro-1-methyl-2-oxo-1H-1,4-benzodiazepin-7-yl]-1,1-dimethylurea] | 160 | 330 | 152 | 2500 |  |  |  |
| CN1C(=O)CN=C(c2ccccc2F)c2c1cc(Cl)c(NC(=O)N1CCN(CCO)CC1)c2Cl [Example 5, N-[6,8-dichloro-5-(o-fluorophenyl)-2,3-dihydro-1-methyl-2-oxo-1H-1,4-benzodiazepin-7-yl]-4-(2-hydroxyethyl)-1-piperazinecarboxamide] | 120 | 300 | 173 | > 5000 |  |  |  |
| CN1C(=O)CN=C(c2ccccc2F)c2c1cc(Cl)c(NC(=O)NCCN1CCOCC1)c2Cl [Example 6, 1-[6,8-dichloro-5-(o-fluorophenyl)-2,3-dihydro-1-methyl-2-oxo-1H-1,4-benzodiazepin-7-yl]-3-(2-morpholinoethyl)urea] | 91 | 254 | 183 | 5000 |  |  |  |
| C[C@]12CCC(=O)C=C1CC[C@@H]1[C@@H]2[C@@H](O)C[C@]2(C=O)[C@@H](C(=O)CO)CC[C@@H]12 [aldosterone, reference compound] |  |  |  |  | reduction of the excreted urine volume | increased potassium excretion | pronounced reduction of the sodium excretion |
